Results reported in patent US20240287042A1, “NOVEL COMPOUND HAVING INHIBITORY ACTIVITY AGAINST PENDRIN, AND PHARMACEUTICAL USES THEREOF” (UIF (University Industry Foundation), Yonsei University, priority 2021, published 2024).
pIC50: −log10 of the molar value.

Assays:
[1] = target: T1, human wild-type (WT)-SLC26A3 (Homo sapiens, UniProt P40879); test: SLC26A3 Cl−/I− exchange activity, YFP fluorescence in LN-215 cells; format: cell-based; conditions: for pIC50: LN-215-YFP cells, FIG. 2, read-out: IC50 of Cl−/I− anion exchange by SLC26A3
T1 construct: expressed in transfected cells
T1 sequence (P40879 1-764): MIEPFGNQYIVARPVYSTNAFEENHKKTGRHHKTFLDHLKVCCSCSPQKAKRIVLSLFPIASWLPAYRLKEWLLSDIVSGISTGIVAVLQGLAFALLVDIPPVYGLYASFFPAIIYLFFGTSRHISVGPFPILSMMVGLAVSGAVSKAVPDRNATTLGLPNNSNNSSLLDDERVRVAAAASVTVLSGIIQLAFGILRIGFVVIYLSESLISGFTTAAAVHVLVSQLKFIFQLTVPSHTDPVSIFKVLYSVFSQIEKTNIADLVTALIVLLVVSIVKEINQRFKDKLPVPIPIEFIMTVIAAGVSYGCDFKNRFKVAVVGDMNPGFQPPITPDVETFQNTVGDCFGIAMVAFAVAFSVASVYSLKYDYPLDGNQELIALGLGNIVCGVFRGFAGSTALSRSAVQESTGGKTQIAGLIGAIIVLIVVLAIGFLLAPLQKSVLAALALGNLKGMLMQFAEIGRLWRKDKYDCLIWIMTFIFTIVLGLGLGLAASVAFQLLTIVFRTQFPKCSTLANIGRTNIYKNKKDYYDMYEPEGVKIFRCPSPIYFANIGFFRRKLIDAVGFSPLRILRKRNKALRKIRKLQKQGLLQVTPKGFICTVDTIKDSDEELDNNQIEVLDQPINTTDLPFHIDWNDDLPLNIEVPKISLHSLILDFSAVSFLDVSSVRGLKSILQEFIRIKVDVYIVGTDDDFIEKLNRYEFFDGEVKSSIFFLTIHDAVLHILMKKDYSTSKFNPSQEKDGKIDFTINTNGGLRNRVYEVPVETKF
Procedure: LN-215 cells were cultured in DMEM medium containing 10% fetal bovine serum (FBS), 100 units/ml of penicillin and 100 μg/ml streptomycin. LN-215 cells were stably transfected with pcDNA3.1 encoding the halide sensor YFP-H148Q/I152L/F46L and human wild-type (WT)-SLC26A3.
LN-215 cells expressing human WT SLC26A3 and YFP-F46L/H148Q/I152L were plated in 96-well microplates at a density of 2×10^4 cells per well, and cultured for 48 hours. Each well of the cell cultured 96-well plate was washed 2 times with 200 μL of PBS, and filled with 50 μL of HEPES buffered solution (140 mM NaCl, 5 mM KCl, 1 mM MgCl2, 1 mM CaCl2), 10 mM glucose and 10 mM HEPES (pH 7.4)). Test compounds (1 μL) were added to a final concentration of 100 μM. After culturing at 37° C. for 10 minutes, the 96-well plate was located on the FLUOstar Omega Microplate Reader (BMG Labtech, Ortenberg, Germany) for a fluorescence assay. Fluorescence was recorded continuously (400 ms per point) for 1 second (baseline), whereby each well was assayed individually for SLC26A3-mediated I-influx. Then, 50 μL of NaI-substituted HEPES buffered solution (replacing NaCl with NaI) was added using a liquid injector at 1 second, and YFP fluorescence was recorded for 5 seconds. The initial iodide influx rate was determined from the initial slope of fluorescence by nonlinear regression, after the injection of iodide.
In the case of SLC26A3 and SLC26A6, each transporter protein and halide sensitive YFP were expressed in LN-215 cells to measure the activity of the transporter protein.
Other details were carried out in the same manner as Example 5.

human WT CFTR = target: T2, human WT CFTR (Homo sapiens, UniProt P13569); test: CFTR I− transport activity, YFP fluorescence, forskolin-activated; format: cell-based; conditions: for Effect on CFTR activity: 100 μM
T2 construct: expressed in transfected cells
T2 sequence (P13569 whole entry): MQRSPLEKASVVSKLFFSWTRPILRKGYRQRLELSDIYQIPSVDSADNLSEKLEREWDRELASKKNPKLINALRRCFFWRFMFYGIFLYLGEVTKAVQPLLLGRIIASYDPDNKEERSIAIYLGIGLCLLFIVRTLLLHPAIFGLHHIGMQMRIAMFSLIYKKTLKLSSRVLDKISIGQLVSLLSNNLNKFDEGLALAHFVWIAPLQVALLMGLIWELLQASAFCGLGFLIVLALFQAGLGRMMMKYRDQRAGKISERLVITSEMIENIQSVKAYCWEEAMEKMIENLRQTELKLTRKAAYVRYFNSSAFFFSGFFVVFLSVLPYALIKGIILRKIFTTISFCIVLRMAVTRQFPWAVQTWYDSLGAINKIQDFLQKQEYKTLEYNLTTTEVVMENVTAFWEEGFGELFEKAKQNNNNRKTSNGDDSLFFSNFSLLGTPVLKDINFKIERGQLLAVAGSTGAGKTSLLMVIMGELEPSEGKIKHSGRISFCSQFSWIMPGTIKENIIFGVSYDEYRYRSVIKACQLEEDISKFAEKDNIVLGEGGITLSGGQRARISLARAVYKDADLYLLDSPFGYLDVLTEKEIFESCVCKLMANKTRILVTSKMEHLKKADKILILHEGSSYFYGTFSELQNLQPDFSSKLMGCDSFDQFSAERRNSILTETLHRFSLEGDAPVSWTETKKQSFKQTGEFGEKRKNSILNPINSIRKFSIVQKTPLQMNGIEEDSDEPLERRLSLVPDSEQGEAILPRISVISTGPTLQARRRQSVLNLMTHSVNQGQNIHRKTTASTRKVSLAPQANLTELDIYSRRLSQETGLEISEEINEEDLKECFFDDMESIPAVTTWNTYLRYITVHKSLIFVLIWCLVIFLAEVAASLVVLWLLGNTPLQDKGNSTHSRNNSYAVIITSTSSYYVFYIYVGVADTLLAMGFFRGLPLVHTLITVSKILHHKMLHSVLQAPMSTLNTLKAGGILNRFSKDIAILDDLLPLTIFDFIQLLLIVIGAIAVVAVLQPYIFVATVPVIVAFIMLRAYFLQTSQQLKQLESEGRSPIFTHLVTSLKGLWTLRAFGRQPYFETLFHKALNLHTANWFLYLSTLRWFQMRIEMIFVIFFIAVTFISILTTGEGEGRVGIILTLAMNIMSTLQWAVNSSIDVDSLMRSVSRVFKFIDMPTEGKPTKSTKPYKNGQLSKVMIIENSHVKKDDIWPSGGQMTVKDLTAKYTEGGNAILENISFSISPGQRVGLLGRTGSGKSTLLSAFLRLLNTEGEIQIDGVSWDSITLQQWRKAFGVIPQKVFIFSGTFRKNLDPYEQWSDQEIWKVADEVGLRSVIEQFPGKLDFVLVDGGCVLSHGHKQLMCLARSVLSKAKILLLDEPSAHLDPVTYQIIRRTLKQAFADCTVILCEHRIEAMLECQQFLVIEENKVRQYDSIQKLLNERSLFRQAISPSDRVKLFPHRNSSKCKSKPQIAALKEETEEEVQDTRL
Procedure: Chinese hamster ovary (CHO)-K1 cells or LN-215 cells were cultured in DMEM medium containing 10% fetal bovine serum (FBS), 100 units/ml of penicillin and 100 μg/ml streptomycin. CHO-K1 cells or LN-215 cells were stably transfected with pcDNA3.1 encoding the halide sensor YFP-H148Q/I152L/F46L and human wild-type (WT)-SLC26A9. Fisher rat thyroid (FRT) cells stably transfected with YFP-H148Q/I152L/F46L and human wild type (WT)-CFTR or human wild type (WT)-ANO1 were cultured in DMEM/F-12 medium containing 10% fetal bovine serum (FBS), 100 units/ml of penicillin, and 100 μg/ml of streptomycin.
LN-215 cells expressing human WT SLC26A9 and YFP-F46L/H148Q/I152L, and FRT cells expressing human WT CFTR or ANO1 and YFP-F46L/H148Q/I152L were plated in 96-well microplates at a density of 2×10^4 cells per well, and cultured for 48 hours. […] After culturing at 37° C. for 10 minutes, the 96-well plate was located on the FLUOstar Omega Microplate Reader (BMG Labtech, Ortenberg, Germany) for a fluorescence assay. For assay of the activity of […], fluorescence was recorded continuously (400 ms per point) for 1 second (baseline), whereby each well was assayed individually for SLC26A9-mediated I-influx. Then, 50 μL of NaI-substituted HEPES buffered solution (replacing NaCl with NaI) was added using a liquid injector at 1 second, and YFP fluorescence was recorded for 6 seconds. For assay of the activity of CFTR, fluorescence was recorded continuously (400 ms per point) for 2 seconds (baseline), whereby each well was assayed individually for CFTR-mediated I^− influx. Then, 50 μL of NaI-substituted HEPES buffered solution (replacing NaCl with NaI) was added using a liquid injector at 2 second, and YFP fluorescence was recorded for 8 seconds. For assay of the activity of ANO1, fluorescence was recorded continuously (400 ms per point) for 1 second (baseline), whereby each well was assayed individually for ANO1-mediated I^− influx. […] The initial iodide influx rate was determined from the initial slope of fluorescence by nonlinear regression, after the injection of iodide. […]

pIC50 [1] | inhibition at 100 µM (human WT CFTR; FRT-YFP cells, FIG. 3) [%] | Selectivity for pendrin than SLC26A3 [1] | Effect on CFTR activity (human WT CFTR; Example 14, CHO-K1 cells, FIG. 16) | Effect on CFTR activity (human WT CFTR; FRT-YFP cells, FIG. 3) | SMILES
5.42 | ~50 | – | – | – | Cc1ccc(C)c(N2CCN(C(=O)Cc3c(C(=O)O)[nH]c4ccc(Cl)cc34)CC2)c1 [YPI-H05, 5-chloro-3-(2-(4-(2,5-dimethylphenyl)piperazin-1-yl-)-2-oxoethyl)-1H-indole-2-carboxylic acid]
4.94 | – | about 18 times | almost no effect | almost no effect | Cc1ccc2[nH]c(C(=O)O)c(CC(=O)N3CCN(c4c(C)cccc4Cl)CC3)c2c1 [YPI-A4948, 3-(2-(4-(2-Chloro-6-methylphenyl)piperazin-1-yl)-2-oxoethyl)-5-methyl-1H-indole-2-carboxylic acid]
